Assay [1] deals with T1, 17-beta-hydroxysteroid dehydrogenase type 3 (Homo sapiens, UniProt P37058).
T1 sequence (P37058 whole entry): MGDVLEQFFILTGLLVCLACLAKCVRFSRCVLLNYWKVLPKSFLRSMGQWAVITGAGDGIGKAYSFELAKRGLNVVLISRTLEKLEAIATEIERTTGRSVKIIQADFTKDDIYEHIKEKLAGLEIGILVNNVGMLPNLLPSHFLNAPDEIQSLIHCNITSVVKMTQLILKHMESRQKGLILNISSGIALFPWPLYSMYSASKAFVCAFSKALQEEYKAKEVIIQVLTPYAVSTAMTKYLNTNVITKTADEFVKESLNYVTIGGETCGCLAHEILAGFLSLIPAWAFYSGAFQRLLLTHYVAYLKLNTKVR
In words: Inhibition of human 17beta-HSD3 expressed in HeLa cells. The format is cell-based.

In assay [2] the target is T2, Glucocorticoid receptor (Homo sapiens, UniProt P04150).
T2 sequence (P04150 whole entry): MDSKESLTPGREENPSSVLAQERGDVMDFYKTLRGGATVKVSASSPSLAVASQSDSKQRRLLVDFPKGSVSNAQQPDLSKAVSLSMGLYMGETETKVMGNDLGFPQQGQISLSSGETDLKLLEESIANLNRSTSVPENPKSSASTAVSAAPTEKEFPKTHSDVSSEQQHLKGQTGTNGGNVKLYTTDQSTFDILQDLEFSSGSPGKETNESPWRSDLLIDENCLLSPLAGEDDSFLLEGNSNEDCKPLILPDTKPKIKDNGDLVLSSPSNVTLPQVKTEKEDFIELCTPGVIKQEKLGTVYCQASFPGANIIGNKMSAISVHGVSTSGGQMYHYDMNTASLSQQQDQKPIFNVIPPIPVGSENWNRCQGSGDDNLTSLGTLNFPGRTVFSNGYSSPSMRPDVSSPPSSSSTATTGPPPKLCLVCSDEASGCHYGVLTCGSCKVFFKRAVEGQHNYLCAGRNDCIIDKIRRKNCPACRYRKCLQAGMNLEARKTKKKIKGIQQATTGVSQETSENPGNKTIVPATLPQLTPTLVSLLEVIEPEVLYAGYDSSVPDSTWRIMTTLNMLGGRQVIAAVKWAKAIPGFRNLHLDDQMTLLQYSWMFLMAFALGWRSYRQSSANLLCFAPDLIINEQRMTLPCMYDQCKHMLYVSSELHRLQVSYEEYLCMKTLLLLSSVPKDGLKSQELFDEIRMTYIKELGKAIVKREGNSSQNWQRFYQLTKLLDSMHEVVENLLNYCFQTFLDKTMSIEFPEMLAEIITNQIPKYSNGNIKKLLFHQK
Put plainly: Agonist activity at GR by reporter gene assay. In kind it is functional.

Assay [3] addresses T3, 17-beta-hydroxysteroid dehydrogenase type 1 (Homo sapiens, UniProt P14061).
T3 sequence (P14061 whole entry): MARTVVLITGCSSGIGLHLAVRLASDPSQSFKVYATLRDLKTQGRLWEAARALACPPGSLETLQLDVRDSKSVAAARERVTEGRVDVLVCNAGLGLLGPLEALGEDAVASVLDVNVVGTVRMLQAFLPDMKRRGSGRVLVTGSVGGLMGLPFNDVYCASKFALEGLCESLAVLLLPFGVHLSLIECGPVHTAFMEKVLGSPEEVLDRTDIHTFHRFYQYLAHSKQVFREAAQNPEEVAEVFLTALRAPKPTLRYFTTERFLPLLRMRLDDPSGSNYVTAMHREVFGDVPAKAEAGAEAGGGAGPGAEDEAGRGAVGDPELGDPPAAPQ
In words: Inhibition of 17beta-HSD1 by human cell based assay.

In assay [4] the target is T4, 17-beta-hydroxysteroid dehydrogenase type 2 (Homo sapiens, UniProt P37059).
T4 sequence (P37059 whole entry): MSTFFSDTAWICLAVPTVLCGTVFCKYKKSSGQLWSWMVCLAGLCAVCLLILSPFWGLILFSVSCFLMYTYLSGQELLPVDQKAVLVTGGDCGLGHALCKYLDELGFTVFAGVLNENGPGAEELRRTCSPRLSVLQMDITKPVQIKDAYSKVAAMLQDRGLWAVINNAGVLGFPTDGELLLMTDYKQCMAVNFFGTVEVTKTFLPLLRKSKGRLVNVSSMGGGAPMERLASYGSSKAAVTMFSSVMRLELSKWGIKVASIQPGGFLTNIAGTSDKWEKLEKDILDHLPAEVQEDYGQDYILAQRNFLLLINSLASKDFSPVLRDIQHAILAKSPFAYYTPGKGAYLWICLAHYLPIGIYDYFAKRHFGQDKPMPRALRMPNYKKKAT
Put plainly: Inhibition of 17beta-HSD2 by human cell based assay.

The target of assay [5] is T2, Glucocorticoid receptor. Put plainly: Antagonist activity at GR by reporter gene assay. In kind it is functional. On the technique in general: A reporter such as luciferase makes a cellular process visible.
Assay [6] has as its target T5, Estrogen receptor (Homo sapiens, UniProt P03372).
T5 sequence (P03372 whole entry): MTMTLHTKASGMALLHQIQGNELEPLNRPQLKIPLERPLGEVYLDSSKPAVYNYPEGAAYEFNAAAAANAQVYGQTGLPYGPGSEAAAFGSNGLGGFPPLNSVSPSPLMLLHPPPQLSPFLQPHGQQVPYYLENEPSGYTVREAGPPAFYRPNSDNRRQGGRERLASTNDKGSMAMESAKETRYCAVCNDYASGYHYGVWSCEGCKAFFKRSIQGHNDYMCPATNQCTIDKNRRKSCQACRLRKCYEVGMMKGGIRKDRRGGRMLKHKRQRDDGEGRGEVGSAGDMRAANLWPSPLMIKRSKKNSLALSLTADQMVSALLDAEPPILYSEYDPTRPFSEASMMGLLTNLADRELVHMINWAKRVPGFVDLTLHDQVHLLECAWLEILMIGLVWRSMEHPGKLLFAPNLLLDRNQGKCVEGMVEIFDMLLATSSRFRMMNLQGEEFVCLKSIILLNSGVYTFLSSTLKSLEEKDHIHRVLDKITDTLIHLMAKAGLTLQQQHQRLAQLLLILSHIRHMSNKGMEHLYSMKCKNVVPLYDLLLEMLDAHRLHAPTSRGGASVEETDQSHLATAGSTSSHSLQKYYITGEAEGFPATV
Put plainly: Antagonist activity at ER by reporter gene assay. In kind it is functional.

Assay [7] has as its target T6, Androgen receptor (Homo sapiens, UniProt P10275).
T6 sequence (P10275 whole entry): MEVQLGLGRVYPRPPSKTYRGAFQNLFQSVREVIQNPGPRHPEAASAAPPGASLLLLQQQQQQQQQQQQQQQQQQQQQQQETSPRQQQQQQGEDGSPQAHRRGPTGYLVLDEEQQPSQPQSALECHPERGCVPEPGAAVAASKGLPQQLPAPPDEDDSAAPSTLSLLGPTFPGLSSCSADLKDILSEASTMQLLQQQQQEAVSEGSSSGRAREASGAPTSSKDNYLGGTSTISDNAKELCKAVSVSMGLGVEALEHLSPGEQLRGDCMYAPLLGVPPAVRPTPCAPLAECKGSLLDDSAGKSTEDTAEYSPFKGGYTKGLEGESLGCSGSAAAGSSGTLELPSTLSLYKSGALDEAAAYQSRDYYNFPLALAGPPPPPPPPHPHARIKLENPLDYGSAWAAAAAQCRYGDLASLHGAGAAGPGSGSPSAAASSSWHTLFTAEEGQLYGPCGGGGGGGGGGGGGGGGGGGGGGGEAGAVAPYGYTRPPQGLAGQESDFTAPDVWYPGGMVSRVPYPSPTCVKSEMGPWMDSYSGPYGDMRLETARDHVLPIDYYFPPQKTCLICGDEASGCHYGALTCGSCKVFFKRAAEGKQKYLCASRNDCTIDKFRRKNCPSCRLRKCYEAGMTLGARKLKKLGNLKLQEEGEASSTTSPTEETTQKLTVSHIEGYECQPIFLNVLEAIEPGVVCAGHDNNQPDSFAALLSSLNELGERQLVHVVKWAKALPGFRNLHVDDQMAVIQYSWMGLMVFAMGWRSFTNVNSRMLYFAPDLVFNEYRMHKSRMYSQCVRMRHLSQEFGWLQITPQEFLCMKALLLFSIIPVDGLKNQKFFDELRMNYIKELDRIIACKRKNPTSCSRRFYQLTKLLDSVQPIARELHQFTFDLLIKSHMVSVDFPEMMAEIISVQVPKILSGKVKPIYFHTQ
Put plainly: Antagonist activity at AR by reporter gene assay. In kind it is functional.

The target of assay [8] is T5, Estrogen receptor. In words: Agonist activity at ER by reporter gene assay. In kind it is functional.
Assay [9] deals with T6, Androgen receptor. In words: Agonist activity at AR by reporter gene assay. In kind it is functional.

The term IC50 denotes the point on the concentration scale where inhibition reaches its midpoint. The compound `O=c1cc(C(F)(F)F)c2ccc(O)cc2o1` yielded an IC50 in assay [1] of 190 nM.

In assay [1], `Cc1c(C)c2ccc(O)cc2oc1=O` yielded an IC50 of 210 nM. The same measure, in the same setting: the figure for `O=c1cc(-c2ccccc2)c2ccc(O)cc2o1` is 1000 nM; for `O=c1cc(CSc2nncs2)c2ccc(O)cc2o1` it is 200 nM. Compound `O=c1cc(CSc2nccs2)c2ccc(O)cc2o1` registered an IC50 in [1] of 10 nM. `Cc1cccc(SCc2cc(=O)oc3cc(O)ccc23)n1`: the IC50 entry was “Not Active” on Glucocorticoid receptor [2]; “Not Active” in [3]; “Not Active” in assay [4]; “Not Active” on Glucocorticoid receptor [5]; “Not Active” against Estrogen receptor [6]; 50000 nM at Androgen receptor [7] (read-out: IC50). In addition, the IC50 at Estrogen receptor [8] (read-out: IC50) was 50000 nM; in assay [1], 1.5 nM; on Androgen receptor [9], “Not Active”.

Consider `Cc1cccc(CCc2cc(=O)oc3cc(O)ccc23)n1`, for which the half-maximal inhibitory concentration (IC50) entry (on Glucocorticoid receptor [2]; in assay [3]; in assay [4]; against Glucocorticoid receptor [5]; against Estrogen receptor [6]; against Androgen receptor [7]) was “Not Active” each time. Also, the results for the IC50 result (at Estrogen receptor [8]; in assay [1]; at Androgen receptor [9]) were “Not Active”, 8 nM and “Not Active”, respectively. In assay [1], `Cc1c(Cl)c(=O)oc2cc(O)ccc12` came in with a half-maximal inhibitory concentration (IC50) of 100 nM. `O=c1cc(CSc2ccccn2)c2ccc(O)cc2o1` registered a concentration for half-maximal inhibition (IC50) in [1] of 3 nM. On to `O=c1cc(CSc2ncccn2)c2ccc(O)cc2o1`, for which the IC50 in [1] stood at 1000 nM. Consider `O=c1cc(CSC2NCCS2)c2ccc(O)cc2o1` (stereo not given), for which the concentration for half-maximal inhibition (IC50) in assay [1] was 96 nM. The same measure, in the same setting: the figure for `O=c1cc(CSc2ccc([N+](=O)[O-])cn2)c2ccc(O)cc2o1` is 88 nM; for `O=c1cc(CSc2ccc(C(F)(F)F)cn2)c2ccc(O)cc2o1` it is 230 nM. Same read-out and setting: the figure for `Cc1cccc(SCc2c(F)c(=O)oc3cc(O)ccc23)n1` is 27 nM. For `Cc1cccc(SCc2c(Cl)c(=O)oc3cc(O)ccc23)n1`, 47 nM corresponded to half-maximal inhibition in assay [1] (IC50). The compound `O=c1oc2cc(O)ccc2c(C(F)(F)F)c1CSc1ccccn1` came in with a 50% inhibitory concentration (IC50) in [1] of 320 nM.

`CCCc1c(C)c2ccc(O)cc2oc1=O` came in with an IC50 in assay [1] of 240 nM. The compound `Cc1c(Cc2ccccc2)c(=O)oc2cc(O)ccc12` came in with a concentration for half-maximal inhibition (IC50) in assay [1] of 200 nM.

`O=c1oc2cc(O)ccc2c(C(F)(F)F)c1Cc1ccccc1`: the IC50 result on Glucocorticoid receptor [2] is “Not Active”; in [3], “Not Active”; in assay [4] it was “Not Active”; at Glucocorticoid receptor [5], “Not Active”; at Estrogen receptor [6], “Not Active”; on Androgen receptor [7] (read-out: IC50) it was 6000 nM. The 50% inhibitory concentration (IC50) on Estrogen receptor [8] (read-out: IC50) was 1000 nM; in assay [1], 30 nM; on Androgen receptor [9] it was “Not Active”.

As for `COCc1cc(=O)oc2cc(O)ccc12`, in [1], the midpoint of inhibition, the IC50, lay at 5000 nM. `O=c1cc(Cc2ccccc2)c2ccc(O)cc2o1`: 10000 nM corresponded to half-maximal inhibition in assay [1] (IC50). As for `O=c1cc(CCc2ccccc2)c2ccc(O)cc2o1`, the IC50 in [1] came out at 20 nM. On to `O=c1cc(COc2ccccc2)c2ccc(O)cc2o1`, for which the IC50 in assay [1] amounted to 10000 nM. `O=c1cc(CNc2ccccc2)c2ccc(O)cc2o1`: in assay [1], the IC50 was determined as 4000 nM. In the case of `O=c1cc(CSc2cccs2)c2ccc(O)cc2o1`, the IC50 in assay [1] came to 420 nM. Compound `Cc1cc2ccc(O)cc2oc1=O` returned an IC50 in assay [1] of 1000 nM. `Cc1c(C#N)c(=O)oc2cc(O)ccc12`: in assay [1], the midpoint of inhibition, the IC50, lay at 1000 nM. On the same count and under the same terms, the value for `Cc1cccc(OCCc2cc(=O)oc3cc(O)ccc23)n1` was 1000 nM; that for `CCc1cc(=O)oc2cc(O)ccc12` was 100 nM. In [1], `CN(Cc1cc(=O)oc2cc(O)ccc12)c1ccccc1` displayed an IC50 of 6000 nM.

Turning to `Cn1ccnc1SCc1cc(=O)oc2cc(O)ccc12`, the IC50 in assay [1] is 91 nM.

Compound `O=c1cc(CSc2ccccc2)c2ccc(O)cc2o1` displayed an IC50 in assay [1] of 93 nM. The compound `CCCc1cc(=O)oc2cc(O)ccc12` showed an IC50 in assay [1] of 59 nM. On to `O=c1cc(CSc2ccncc2)c2ccc(O)cc2o1`, for which half-maximal inhibition in [1] (IC50) required 5000 nM. `Cc1c(F)c(=O)oc2cc(O)ccc12`: in assay [1], the 50% inhibitory concentration (IC50) came to 1000 nM. In the case of `Cc1cc(=O)oc2cc(O)ccc12` [HYMECROMONE], 1000 nM corresponded to half-maximal inhibition in assay [1] (IC50).

The values above are taken from ChEMBL document CHEMBL1153171, “Coumarins as novel 17beta-hydroxysteroid dehydrogenase type 3 inhibitors for potential treatment of prostate cancer” (Bioorg Med Chem Lett, 2010).
